{
  "source": "patent US20050181021A1",
  "about": "“Vitamin E phosphate/phosphatidycholine liposomes to protect from or ameliorate cell damage” (priority 1992, published 2005)",
  "key": {"[1]": {"test_system": "isolated liver cells (1000×g cell fraction)", "type": "cell-based", "details": "phosphatidylcholine 100 μM, vitamin E phosphate 50 μm; for LCLP % control + SEM: in presence of 1 mM iron"}, "Liver cells [2]": {"test_system": "Liver cells", "test": "Incorporation of labeled choline into phosphatidylcholine (PC biosynthesis) by liver cells with iron", "type": "cell-based", "excerpt": "The study of effects on liver cells was also considered based on evaluation of effect on increase in the incorporation of labeled choline into phosphatidylcholine (phosphatidylcholine biosynthesis) by liver cells. Vitamin E phosphate/phosphatidylcholine produced greater beneficial effects than either vitamin E phosphate or phosphatidylcholine. [table]"}, "[3]": {"test": "Precipitation in the presence of divalent metal salts", "type": "physicochemical", "excerpt": "Liposomes were made using salts of the vitamin E phosphate and phosphatidylcholine. These salts were protected by liposomes to avoid precipitation in the presence of 2^+ metal ions."}, "Liver cells [4]": {"test_system": "Liver cells", "test": "Phosphatidylcholine formation in liver cells dysfunctional due to ethanol exposure", "type": "cell-based", "details": "cells exposed to ethanol", "description": "Liver cells which had become dysfunctional due to exposure to ethanol were incubated 24 hours with vitamin E phosphate/phosphatidylcholine liposomes. The pmoles of phosphatidylcholine formed per minute/mg protein was then measured with the following results: […]"}, "cultured liver cells": {"test_system": "cultured liver cells", "test": "Reversal of ethanol damage in cultured liver cells (phosphatidylcholine biosynthesis)", "type": "cell-based", "details": "96 h", "description": "The use of vitamin E phosphate/phosphatidylcholine to effect reversal of damage from ethanol on liver cells was then studied. The cultured liver cells were incubated with 25 mM or 50 mM ethanol for 96 hours, at which time there is significant reduction in liver cell function (phosphatidylcholine biosynthesis). The effect of adding vitamin E phosphate/phosphatdylcholine after 72 hours was studied, and 24 hours later (96 hours after initial exposure to ethanol) values were obtained."}, "male albino mice": {"test_system": "male albino mice", "test": "Allyl alcohol-induced liver injury in mice (SGPT)", "type": "in vivo", "details": "allyl alcohol alone, 50 mg/kg single intraperitoneal dose, 4 hours", "description": "Influence of vitamin E phosphate/phosphatidylcholine liposomes (see example 1) on Allyl alcohol-induced liver injury was evaluated in male albino mice."}, "[5]": {"details": "in presence of 1 mM iron, phosphatidylcholine 100 μM, vitamin E phosphate 50 μm"}},
  "data": [
    {"molecule": "Cc1c(C)c2c(c(C)c1OP(=O)(O)O)CCC(C)(CCCC(C)CCCC(C)CCCC(C)C)O2", "note": "(stereo not shown) [VEP, vitamin E phosphate]", "values": [
      {"measurement": "LCLP % control + SEM", "setting": "[1]", "result": "167 ± 3", "unit": "% control"},
      {"measurement": "iron-dependent lipid peroxidation in isolated liver cells (result in words)", "setting": "[1]", "result": "significantly reduced"},
      {"measurement": "PC biosynthesis % control + SEM", "setting": "Liver cells [2]; [5]", "result": "145 ± 4", "unit": "% control"},
      {"measurement": "behaviour in the presence of divalent metal salts", "setting": "[3]", "result": "precipitated"}
    ]},
    {"molecule": "CCO", "note": "[ETOH, ethanol]", "values": [
      {"measurement": "pmoles of phosphatidylcholine formed per minute/mg protein", "setting": "Liver cells [4]", "result": "25 pmoles per minute/mg protein"},
      {"measurement": "pmoles of phosphatidylcholine formed per minute/mg protein", "setting": "Liver cells [4]; then incubated 24 hours in water", "result": "27 pmoles per minute/mg protein"},
      {"measurement": "phosphatidylcholine biosynthesis % control ± SEM", "setting": "cultured liver cells; 25 mM ethanol alone", "result": "38 ± 2", "unit": "% control"},
      {"measurement": "phosphatidylcholine biosynthesis % control ± SEM", "setting": "cultured liver cells; 50 mM ethanol alone", "result": "22 ± 1", "unit": "% control"}
    ]},
    {"molecule": "[Fe]", "note": "[iron]", "values": [
      {"measurement": "PC biosynthesis % control + SEM", "setting": "Liver cells [2]; 1 mM iron alone", "result": "254 ± 9", "unit": "% control"}
    ]},
    {"molecule": "phosphatidylcholine [PC]", "values": [
      {"measurement": "LCLP % control + SEM", "setting": "[1]", "result": "281 ± 4", "unit": "% control"},
      {"measurement": "iron-dependent lipid peroxidation in isolated liver cells (result in words)", "setting": "[1]", "result": "significantly reduced"},
      {"measurement": "PC biosynthesis % control + SEM", "setting": "Liver cells [2]; [5]", "result": "167 ± 4", "unit": "% control"}
    ]},
    {"molecule": "C=CCO", "note": "[Allyl alcohol]", "values": [
      {"measurement": "SGPT % of control ± SEM", "setting": "male albino mice", "result": "330 ± 15 % of control"}
    ]}
  ]
}
